Measurements: PMC9571937, “Synthesis and Structure–Activity Relationship Studies of Pyrido [1,2-e]Purine-2,4(1H,3H)-Dione Derivatives Targeting Flavin-Dependent Thymidylate Synthase in Mycobacterium tuberculosis” (Molecules, 2022)

What follows are compounds tested against Mtb ThyX (Mycobacterium tuberculosis, UniProt P9WG57) (assay: M. tuberculosis ThyX NADPH oxidase assay). Details: 50 μM, screening hits (Figure 1); read-out: % inhibition (ThyX).
Sequence of Mtb ThyX (P9WG57 whole entry): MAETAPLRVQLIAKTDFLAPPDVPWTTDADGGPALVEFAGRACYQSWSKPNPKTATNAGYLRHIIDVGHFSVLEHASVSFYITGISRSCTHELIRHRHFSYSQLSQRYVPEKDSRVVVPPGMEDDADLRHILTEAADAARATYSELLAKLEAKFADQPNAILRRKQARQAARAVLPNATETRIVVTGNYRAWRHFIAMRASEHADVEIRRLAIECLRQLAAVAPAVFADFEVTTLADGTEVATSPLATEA
Assay type: biochemical
`Cc1ccn2c(c1)nc1c(-c3ccc(OC(F)(F)F)cc3)nc(C(F)(F)F)nc12` [Compound 5] showed an inhibition at 50 µM of 13.2%.
Work on `OB(O)c1ccc(Sc2nc(C(F)(F)F)nc3c2nc2ccccn23)cc1` [Compound 6] yielded an inhibition at 50 µM of 17.1%.

Same assay, conditions: 200 μM compound, NADPH oxidase assay, 50 µM FAD
With “3-(p-Fluorophenyl)-8-hex-1-ynyl-1H-purino [9,8-a]pyridine-2,4-dione [Compound 20c]” the “Inhibition % (Mtb ThyX)” value was 18.6%.
In the case of “3-(p-Fluorophenyl)-8-hept-1-ynyl-1H-purino [9,8-a]pyridine-2,4-dione [Compound 20d]”, the “Inhibition % (Mtb ThyX)” value is reported as 0%.
In the case of “1-[[p-(Dimethoxyphosphorylmethyl)phenyl]methyl]-3-(4-fluorophenyl)purino [9,8-a]pyridine-2,4-dione [Compound 13f]”, the “Inhibition % (Mtb ThyX)” value is reported as 5.6%.

Same assay, conditions: 200 μM compound, NADPH oxidase assay, 50 µM FAD; read-out: Inhibition % (Mtb ThyX)
Compound `O=c1[nH]c2c(nc3ccccn32)c(=O)n1-c1cccc(F)c1` [Compound 9g, 3-(3-Fluorophenyl)pyrido [1,2-e]purine-2,4(1H,3H)-dione] has an inhibition at 200 µM of 12.8%.
In the case of `Cc1ccc(Cn2c(=O)[nH]c3c(nc4ccccn43)c2=O)cc1` [Compound 10d, 3-(p-Methylbenzyl)pyrido [1,2-e]purine-2,4(1H,3H)-dione], the inhibition at 200 µM is reported as 20.2%.
Compound `O=c1c2nc3ccccn3c2n(Cc2ccccc2)c(=O)n1-c1ccc(F)cc1` [Compound 13a, 1-Benzyl-3-(4-fluorophenyl)purino [9,8-a]pyridine-2,4-dione] has an inhibition at 200 µM of 23.2%.
For `CCCCCCC#Cc1ccc2nc3c(=O)n(-c4ccc(F)cc4)c(=O)[nH]c3n2c1` [Compound 21e, 3-(p-Fluorophenyl)-8-oct-1-ynyl-1H-purino [9,8-a]pyridine-2,4-dione], the inhibition at 200 µM was 31.7%.
`O=c1[nH]c2c(nc3ccc(C#CCCc4ccccc4)cn32)c(=O)n1-c1ccc(F)cc1` [Compound 21a, 3-(p-Fluorophenyl)-8-(4-phenylbut-1-ynyl)-1H-purino [9,8-a]pyridine-2,4-dione] was tested, and the inhibition at 200 µM was 69.1%.
Compound `Cc1ccc(-c2ccc3nc4c(=O)n(-c5ccc(F)cc5)c(=O)[nH]c4n3c2)cc1` [Compound 23b, 3-(p-Fluorophenyl)-8-(p-tolyl)-1H-purino [9,8-a]pyridine-2,4-dione] has an inhibition at 200 µM of 44.4%.
`CCCCCC#Cc1ccc2nc3c(=O)n(-c4ccc(F)cc4)c(=O)[nH]c3n2c1` [Compound 21d, 3-(p-Fluorophenyl)-8-hept-1-ynyl-1H-purino [9,8-a]pyridine-2,4-dione] showed an inhibition at 200 µM of 32.5%.
`O=c1[nH]c2c(nc3cc(-c4ccc(OC(F)(F)F)cc4)ccn32)c(=O)n1-c1ccc(F)cc1` [Compound 22d, 3-(p-fluorophenyl)-7-[p-(trifluoromethoxy)phenyl]-1H-purino [9,8-a]pyridine-2,4-dione] was tested, and the inhibition at 200 µM was ≤ 28%.
In the case of `O=c1[nH]c2c(nc3ccccn32)c(=O)n1Cc1ccc(F)cc1` [Compound 10b, 3-(p-Fluorobenzyl)pyrido [1,2-e]purine-2,4(1H,3H)-dione], the inhibition at 200 µM is reported as 21.2%.
`Cc1ccc(-n2c(=O)[nH]c3c(nc4ccccn43)c2=O)cc1C` [Compound 9j, 3-(3,4-Dimethylphenyl)pyrido [1,2-e]purine-2,4(1H,3H)-dione] showed an inhibition at 200 µM of 19.9%.
Work on `O=c1[nH]c2c(nc3ccccn32)c(=O)n1-c1ccc(F)cc1F` [Compound 9i, 3-(2,4-Difluorophenyl)pyrido [1,2-e]purine-2,4(1H,3H)-dione] yielded an inhibition at 200 µM of 6.6%.
Work on `Cc1ccc(-c2ccn3c(c2)nc2c(=O)n(-c4ccc(F)cc4)c(=O)[nH]c23)cc1` [Compound 22b, 3-(p-Fluorophenyl)-7-(p-tolyl)-1H-purino [9,8-a]pyridine-2,4-dione] yielded an inhibition at 200 µM of 45.7%.
For `O=c1[nH]c2c(nc3ccccn32)c(=O)n1Cc1ccc(C(F)(F)F)cc1` [Compound 10c, 3-(p-(Trifluoromethyl)benzyl)pyrido [1,2-e]purine-2,4(1H,3H)-dione], the inhibition at 200 µM was 20.7%.
For `O=c1[nH]c2c(nc3ccc(-c4ccc(OC(F)(F)F)cc4)cn32)c(=O)n1-c1ccc(F)cc1` [Compound 23d, 3-(p-Fluorophenyl)-8-[p-(trifluoromethoxy)phenyl]-1H-purino [9,8-a]pyridine-2,4-dione], the inhibition at 200 µM was 29.4%.

Same assay, conditions: 200 µM, screening of in-house compound libraries; read-out: ThyX inhibitory effect
With `Cc1ccn2c(c1)nc1c(-c3ccc(OC(F)(F)F)cc3)nc(C(F)(F)F)nc12` [Compound 5] the inhibition at 200 µM was 23.1%.
For `OB(O)c1ccc(Sc2nc(C(F)(F)F)nc3c2nc2ccccn23)cc1` [Compound 6], the inhibition at 200 µM was 33.2%.
